We go through nine compounds from patent US9751874B2, “Hydroxy containing FXR (NR1H4) modulating compounds” (Gilead Sciences, Inc., priority 2014, dated 2017).

Broadly, the EC50 is the concentration giving half of the maximal effect.

Where only a bound is given, the exact number is not on record here.

Assay [1] concerns the target T1, FXR ligand binding domain (Homo sapiens, UniProt Q96RI1).
T1 construct: expressed in transfected cells; host or cells: HEK293 cells, transiently transfected with pCMV-BD-FXR-LBD, pFR-Luc and pRL-CMV
T1 sequence (Q96RI1 187-472 isoform Q96RI1-2): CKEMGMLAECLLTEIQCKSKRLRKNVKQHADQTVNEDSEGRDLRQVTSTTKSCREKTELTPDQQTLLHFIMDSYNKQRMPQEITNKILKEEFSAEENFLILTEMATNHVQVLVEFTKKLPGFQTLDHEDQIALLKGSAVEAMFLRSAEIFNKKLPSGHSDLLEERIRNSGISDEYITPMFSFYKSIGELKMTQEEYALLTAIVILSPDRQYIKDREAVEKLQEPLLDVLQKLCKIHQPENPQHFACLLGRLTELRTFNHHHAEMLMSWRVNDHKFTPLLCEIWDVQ
Description: Mammalian One Hybrid (M1H) assay, Gal4 promoter driven transactivation in HEK293 cells. In kind it is cell-based. To be noted: Gal4-FXR-LBD luciferase reporter, 16 h. The gist of the method:
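HEK293 cells were transiently co-transfected with Gal4-DBD fused to the human FXR LBD (aa 187-472, NM_005123), a 5×GAL4-site firefly luciferase reporter and CMV-Renilla control. Compounds were added 2-4 h post-transfection (vehicle ≤0.1%) in charcoal/dextran-stripped FBS medium for 16 h. Firefly and Renilla luciferase were read sequentially, in triplicate.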

Assay [2] addresses T2, human FXR alpha ligand binding domain (Homo sapiens, UniProt Q96RI1).
T2 construct: made in house; host or cells: E. coli BL21(DE3), vector pDEST15
T2 sequence (Q96RI1 187-472 isoform Q96RI1-2): T1 sequence (Q96RI1 187-472 isoform Q96RI1-2)
Briefly: FRET activity assay (ligand mediated cofactor peptide interaction, LANCE). The class given is biochemical. The conditions noted are these: GST-FXR-LBD / biotinylated SRC-1 peptide (676-700), read-out: F EC50. Summed up: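 GST-tagged FXR LBD (aa 187–472, E. coli-expressed) at 20–60 ng/well with 200–600 nM biotinylated SRC-1 peptide (676–700), streptavidin-APC and Eu anti-GST in Tris pH 7.5 buffer, 1% DMSO, equilibrated 1 h dark at room temperature. TR-FRET read as 665/615 nm ratio; agonists raise signal above basal.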

In the case of `O[C@@]1(c2nc3ccccc3s2)[C@@H]2CC3C[C@H]1C[C@](OCc1c(-c4c(Cl)cccc4Cl)noc1C1CC1)(C3)C2` [Example 24b, (1R,2s,3S,5s,7s)-2-(benzo[d]thiazol-2-yl)-5-((5-cyclopropyl-3-(2,6-dichlorophenyl)isoxazol-4-yl)methoxy)adamantan-2-ol], the EC50 in assay [1] was 0.73 µM; in assay [2], 0.24 µM.

Consider `O=C(O)c1cccc2nc([C@]3(O)CC[C@@H](OCc4c(-c5c(Cl)cccc5Cl)noc4C4CC4)CC3)sc12` [Example 26, 2-((1s,4s)-4-((5-Cyclopropyl-3-(2,6-dichlorophenyl)isoxazol-4-yl)methoxy)-1-hydroxycyclohexyl)benzo[d]thiazole-7-carboxylic acid], for which the EC50 in assay [1] turned out to be 0.21 µM; in assay [2], 0.017 µM.

For the compound `O=C(O)c1ccnc2cc([C@]3(O)CC[C@@H](OCc4c(-c5c(Cl)cccc5Cl)noc4C4CC4)CC3)ccc12` [Example 29, 7-((1s,4s)-4-((5-cyclopropyl-3-(2,6-dichlorophenyl)isoxazol-4-yl)methoxy)-1-hydroxycyclohexyl)quinoline-4-carboxylic acid], the EC50 in assay [1] came to 2.6 µM; in assay [2], 0.051 µM.

Turning to `O=C(O)c1ccnc2ccc([C@]3(O)CC[C@@H](OCc4c(-c5c(Cl)cccc5Cl)noc4C4CC4)CC3)cc12` [Example 30, 6-((1s,4s)-4-((5-Cyclopropyl-3-(2,6-dichlorophenyl)isoxazol-4-yl)methoxy)-1-hydroxycyclohexyl)quinoline-4-carboxylic acid], the EC50 in assay [1] is above 3 µM; in assay [2] it was 0.19 µM.

As for `O=C(O)c1ccnc2ccc([C@]3(O)CC[C@H](OCc4c(-c5c(Cl)cccc5Cl)noc4C4CC4)CC3)cc12` [Example 31, 6-((1r,4r)-4-((5-cyclopropyl-3-(2,6-dichlorophenyl)isoxazol-4-yl)methoxy)-1-hydroxycyclohexyl)quinoline-4-carboxylic acid], the EC50 is above 3 µM in assay [1] and 4.9 µM in assay [2].

Turning to `O=Cc1nsc2ccc([C@]3(O)CC[C@@H](OCc4c(-c5c(Cl)cccc5Cl)noc4C4CC4)CC3)cc12` [Example 32, 5-((1s,4s)-4-((5-Cyclopropyl-3-(2,6-dichlorophenyl)isoxazol-4-yl)methoxy)-1-hydroxycyclohexyl)benzo[d]isothiazole-3-carbaldehyde], the EC50 turned out to be 0.4 µM in assay [1] and 0.19 µM in assay [2].

Regarding `O=C(O)c1nsc2ccc([C@]3(O)CC[C@@H](OCc4c(-c5c(Cl)cccc5Cl)noc4C4CC4)CC3)cc12` [Example 33, 5-((1s,4s)-4-((5-Cyclopropyl-3-(2,6-dichlorophenyl)isoxazol-4-yl)methoxy)-1-hydroxycyclohexyl)benzo[d]isothiazole-3-carboxylic acid], the EC50 was 2.7 µM in assay [1] and 0.12 µM in assay [2].

Take `O[C@@]1(c2cnc3nn[nH]c3c2)[C@@H]2CC[C@H]1C[C@H](OCc1c(-c3c(Cl)cccc3Cl)noc1C1CC1)C2` [Example 34, (1R,3s,5S,8r)-8-(1H-[1,2,3]Triazolo[4,5-b]pyridin-6-yl)-3-((5-cyclopropyl-3-(2,6-dichlorophenyl)isoxazol-4-yl)methoxy)bicyclo[3.2.1]octan-8-ol]: the figures for the EC50 in assay [1] and in assay [2] were 0.0053 µM and 0.0041 µM, respectively.

Take `O=c1nc(-c2cc(F)c3nc([C@]4(O)[C@@H]5CC[C@H]4C[C@H](OCc4c(-c6c(Cl)cccc6Cl)noc4C4CC4)C5)sc3c2)[nH]o1` [Example 36, 3-(2-((1R,3s,5S,8r)-3-((5-Cyclopropyl-3-(2,6-dichlorophenyl)isoxazol-4-yl)methoxy)-8-hydroxybicyclo[3.2.1]octan-8-yl)-4-fluorobenzo[d]thiazol-6-yl)-1,2,4-oxadiazol-5(2H)-one]: the EC50 in assay [1] amounted to 0.037 µM; in assay [2], 0.0046 µM.
